Measurements as given in patent US6075013A, “Modified low molecular weight heparin that inhibits clot associated coagulation factors” (Hamilton Civic Hospitals Research Development Inc., priority 1998, dated 2000).

Experiments:
[1] = tested on: washed plasma clot; test: procoagulant activity of washed plasma clot in unanticoagulated whole blood; assay type: biochemical; conditions: washed plasma clot incubated in unanticoagulated whole blood
Text: There is mounting evidence that both fibrin-bound thrombin and platelet-bound factor Xa contribute to the intense procoagulant activity of thrombi. […] Development of these agents requires an understanding of the mechanisms by which fibrin-bound IIa and platelet-bound factor Xa are protected from inactivation by heparin, LMWH and hirudin.

[2] = tested on: injured rabbit aorta; test: rabbit arterial thrombosis prevention model; assay type: in vivo; conditions: over the doses tested
Experimental: The arterial thrombosis prevention model was modified so that both efficacy and safety could be assessed in the same animal. […] The four compounds were compared at three dosage levels. Each compound was administered as a bolus and infusion for 90 minutes. The doses listed in the following figures represent the bolus and infusion/60 minutes, administered for 90 minutes. The doses for heparin are shown as units/Kg, for LMWH and V21 as mg/Kg and for hirudin as mg/Kg. […] Thus, the specific activity of LMWH is 100 anti-Xa/mg and 30 anti-IIa units/mg. […] The anticoagulants were compared in the following dosages. Heparin 50 units/Kg and 75 unit/Kg; LMWH and V21 0.5, 1.0 and 1.5 mg/Kg; Hirudin 0.1/0.1, 0.1/0.2 and 0.1/0.3 mg/Kg.
FIG. 11 compares the efficacy of the four anticoagulants using cumulative time that the aorta remained patent over the 90 minutes of observation as the outcome measure of efficacy. One hundred percent accumulated patency reflects complete patency and 0% cumulative patency reflects immediate and sustained thrombotic occlusion.

[3] = target: thrombin (IIa) binding to fibrin (Homo sapiens, UniProt P00734); test: effect on thrombin (IIa) binding to fibrin / fibrin monomer-sepharose; conditions: presence of 250 nM heparin
Experimental: FIGS. 1A and 1B illustrate the effects of varying heparin concentrations on thrombin (IIa) binding to fibrin (A) and on thrombin's apparent affinity for fibrin (B).
FIG. 3 illustrates the effect of hirugen (Hg), prothrombin fragment 2 (F2) or antibody against exosite 2 (Wab) on thrombin (IIa) binding to fibrin monomersepharose in the absence or presence of 250 nM heparin.
FIG. 9 illustrates the effect of unfractionated heparin (UFH) and a 6,000 Da heparin fraction (MLMWH) on thrombin (IIa) binding to fibrin.
When heparin is present, the amount of thrombin that binds to fibrin changes, as does the mode of thrombin interaction with fibrin.
The mode of thrombin binding also changes in the presence of heparin. Whereas thrombin binds to fibrin via exosite 1 in the absence of heparin, enhanced α-thrombin binding seen in the presence of heparin is mediated by exosite 2 because heparin augments the binding of γ-thrombin to the same extent as α-thrombin but has little effect on the binding of RA-thrombin (FIG. 2). Furthermore, excess α-thrombin bound in the presence of heparin is displaced with an antibody to exosite 2 or with prothrombin fragment 2 (F2) which, like heparin, also binds to exosite 2 (Arni, R. K., et al. (1993) Biochemistry 32:4727-4737). […]

TAP: tick anticoagulant peptide, a direct inhibitor of factor Xa (YNRLCIKPRDWIDECDSNEGGERAYFRNGKGGCDSFWICPEDHTGADYYSSYRDCFNACI; UniProt P17726 1-60, looked up)
block of the clot's ability to accelerate coagulation [1]: cannot be blocked

hirudin
response of the model to the antithrombotic effects [2]: very responsive | block of the clot's ability to accelerate coagulation [1]: cannot be blocked

B1: prothrombin fragment 2 (F2): prothrombin fragment 2, binds to exosite 2 of thrombin (protein, UniProt P00734 199-327, looked up)
Activation peptide fragment 2: SEGSSVNLSPPLEQCVPDRGQQYQGRLAVTTHGLPCLAWASAQAKALSKHQDFNSAVQLVENFCRNPDGDEEGVWCYVAGKPGDFGYCDLNYCEEAVEEETGDGLDEDSDRAIEGRTATSEYQTFFNPR
modifications: Activation peptide fragment 2
effect on heparin-dependent binding of thrombin to fibrin [3]: displaced
